The source of these data is patent US20200110072A1, “IMAGING METHODS TO ASSESS THE EFFICACY OF ANTICANCER DRUGS IN VITRO USING SPONTANEOUSLY-FORMING SPHEROIDS” (ROWAN UNIVERSITY, priority 2016, published 2020).

Entries after “also recorded” stand apart in the source; their conditions may differ.

In assay [1] the test system is spheroids^MARY-X. Kind of assay: Spheroids^MARY-X drug screen: bright-field image analysis of spheroid dissolution (dissolution indices). Type of assay: cell-based, human. To be noted: for Response (deviation from well-circumscribed spheroid edge / spheroid dissolution): increasing doses, bright-field images. The method, then: In particular, the invention provides novel methods for determining drug response and calculating drug potency. In drug screens according to the invention spheroids or spheroids^MARY-X are seeded in multi-well plates, treated with vehicle only (control) and increasing doses of one or more drugs of interest. Following a 24-hr treatment period each well undergoes analysis to assess dissolution of the spheroids^MARY-X (see FIGS. 4A and 4B).
In exemplary embodiments the dissolution index is determined by applying an image analysis program on ImageJ that measures the circularity of an object's area and perimeter where ‘1’ signifies a perfect circle (i.e. intact spheroid) and numbers approaching ‘0’ signify loss of circularity (i.e. dissolute spheroid). Note that ‘0’ signifies a straight line and can never be achieved in image analysis of spheroids given the innate circularity of individual cells (see FIG. 4A). The induction of apoptosis correlates with the loss of well-circumscribed edges of the usually tight, compact spheroids, i.e. dissolution is consistent with cell death of the spheroid/embolus.
Spheroids^MARY-X Dissolution Indices: The spheroid dissolution index was determined by applying an image analysis program on ImageJ that measures the circularity of an object's area and perimeter where ‘1’ signifies a perfect circle (i.e. intact spheroid) and numbers approaching ‘0’ signify loss of circularity (i.e. dissolute spheroid). Note that ‘0’ signifies a straight line and can never be achieved in image analysis of spheroids given the innate circularity of individual cells.
Drug Screen: The 40-100 μm spheroids were distributed in equal number (˜30-50 spheroids/well) to a multi-well plate. The spheroids^MARY-X was treated with vehicle only (DMSO) and increasing doses of drug of interest in each 24-well plate. Following 24 hr treatment periods each well was imaged and analyzed with ImageJ for measurement of dissolution of the spheroids^MARY-X. The induction of apoptosis is correlated with the loss of the well circumscribed edges of the usually tight, compact spheroids^MARY-X i.e. dissolution is consistent with cell death of the spheroid/embolus.

The subject of assay [2] is triple-negative breast cancer 2-D culture models. To be noted: preclinical analysis; cited from earlier work.
For assay [3], the system named is spheroids^MARY-X. Put plainly: Spheroids^MARY-X dual-fluorescence viability assay (acridine orange / propidium iodide, Cellometer K2). Type of assay: cell-based, human. The note with it: 24-hour treatment; for Response in dual fluorescence viability assay: AO/PI staining; for IC50: Homo sapiens, AO/PI, read-out: IC50 from dose-response curve, dual fluorescence viability assay. The protocol: Spheroids^MARY-X Viability Assay: Dual-fluorescent assays were performed on a Cellometer K2 (Nexcelom Biosciences, Lawrence, Mass.) using the viability stains, acridine orange and propium iodide.
Dissolution indices vs. standard viability assay: In an effort to validate response data acquired by image analysis (i.e. dissolution indices) an alternate method, traditionally used to determine and quantify cell viability, and was performed on a replicate drug screen. This drug screen reproduced drug dose parameters of paclitaxel (PTX), gambogic acid (GA) and MAD28. Viability was measured by dual fluorescence analysis of propidium iodide (PI) and acridine orange (AO). Following the 24-hour treatment period, spheroids^MARY-X were analyzed using the Cellometer K2 in the dual-fluorescence viability assay. The nuclear stains AO and PI were added to the control (vehicle only) and treated spheroids^MARY-X, where AO stains both live and dead (green) cells and PI stains only dead (orange) cells with compromised membranes. Fluorescent images presented here are one of eight random fields captured for the viability analyses.

`CC(C)NCCCn1c(Sc2cc3c(cc2I)OCO3)nc2c(N)ncnc21` [PU-H71]: the “Response (deviation from well-circumscribed spheroid edge / spheroid dissolution)” value with spheroids^MARY-X [1] (24-hour treatment) is given as “no response”. Besides, the Response entry in assay [2] was “complete response”.
As to `CC(C)=CCC[C@]1(C)C=Cc2c(O)c3c(c(CC=C(C)C)c2O1)O[C@]12C(=C[C@@H]4C[C@H]1C(C)(C)O[C@@]2(C/C=C(/C)C(=O)O)C4=O)C3=O` [Gambogic acid], the “Response (deviation from well-circumscribed spheroid edge / spheroid dissolution)” value in the assay with spheroids^MARY-X [1] (24-hour treatment) is “complete”. In addition, the concentration for half-maximal inhibition (IC50) was 0.54 µM in the assay with spheroids^MARY-X [1] (Homo sapiens, as printed in b33 for gambogic acid, read-out: IC50, spheroidal dissolution and apoptosis); 0.54 µM in the assay with spheroids^MARY-X [1] (Homo sapiens, read-out: IC50 from dissolution indices); 1.2 µM in the assay with spheroids^MARY-X [3]. Further, the “Response (spheroid dissolution)” value in the assay with spheroids^MARY-X [1] (at 2.5 μM concentration (MAD44: similar concentrations)) was “complete spheroid dissolution”. Further, the “Response in dual fluorescence viability assay” value is reported as “complete” in the assay on spheroids^MARY-X [3] and “complete response” in the assay on spheroids^MARY-X [3] (listed as GA).
For the compound `N.N.[Cl][Pt][Cl]` [Cisplatin, cisplatin], the “Response (deviation from well-circumscribed spheroid edge / spheroid dissolution)” value is on record as “No” in the assay with spheroids^MARY-X [1] (24-hour treatment) and “no drug response” with spheroids^MARY-X [1] (24-hour treatment, listed as cisplatin).
On to `CN(Cc1cnc2nc(N)nc(N)c2n1)c1ccc(C(=O)N[C@@H](CCC(=O)O)C(=O)O)cc1` [Methotrexate, methotrexate], for which the “Response (deviation from well-circumscribed spheroid edge / spheroid dissolution)” value in the assay with spheroids^MARY-X [1] (24-hour treatment) was “no response and No”; with spheroids^MARY-X [1] (24-hour treatment, listed as methotrexate), “no drug response”.
As for `CC(=O)O[C@H]1C(=O)[C@@]2(C)[C@H]([C@H](OC(=O)c3ccccc3)[C@]3(O)C[C@H](OC(=O)[C@H](O)[C@@H](NC(=O)c4ccccc4)c4ccccc4)C(C)=C1C3(C)C)[C@]1(OC(C)=O)CO[C@@H]1C[C@@H]2O` [Paclitaxel, paclitaxel], the “Response (deviation from well-circumscribed spheroid edge / spheroid dissolution)” value in the assay on spheroids^MARY-X [1] (24-hour treatment) was “virtually ineffective”. For the same compound, the IC50 in the assay with spheroids^MARY-X [1] (24-hour treatment, ImageJ circularity, read-out: IC50 from dissolution indices dose-response curve) was found to be 7.79 µM; with spheroids^MARY-X [1] (Homo sapiens, 24 h, 24-hour treatment, ImageJ circularity, read-out: IC50 from dissolution indices dose-response curve), 7.8 µM; in the assay on spheroids^MARY-X [3], 5.4 µM. The Response entry with spheroids^MARY-X [1] (at a 5.0 μM concentration) was “no to low”. Also, the “Response in dual fluorescence viability assay” value in the assay on spheroids^MARY-X [3] is on record as “ineffective at producing a ‘complete’ response”; in the assay with spheroids^MARY-X [3] (listed as PTX), “little if any activity”.
With `CS(=O)(=O)CCNCc1ccc(-c2ccc3ncnc(Nc4ccc(OCc5cccc(F)c5)c(Cl)c4)c3c2)o1` [Lapatinib, lapatinib], the “Response (deviation from well-circumscribed spheroid edge / spheroid dissolution)” value in the assay on spheroids^MARY-X [1] (24-hour treatment) was “Low - Moderate”; in the assay on spheroids^MARY-X [1] (24-hour treatment, listed as lapatinib), “Low to moderate; also recorded: slight response; also recorded: low response”.
Regarding `CC(C)C[C@H](NC(=O)[C@H](Cc1ccccc1)NC(=O)c1cnccn1)B(O)O` [Bortezomib, bortezomib], the “Response (deviation from well-circumscribed spheroid edge / spheroid dissolution)” value is “Low - Moderate” with spheroids^MARY-X [1] (24-hour treatment); “Low to moderate” in the assay with spheroids^MARY-X [1] (24-hour treatment, listed as bortexomib); “slight response” in the assay with spheroids^MARY-X [1] (24-hour treatment, listed as bortezomab); “slight response; also recorded: low response” in the assay on spheroids^MARY-X [1] (24-hour treatment, listed as bortezomib).
Regarding `COc1cccc2c1C(=O)c1c(O)c3c(c(O)c1C2=O)C[C@@](O)(C(=O)CO)C[C@@H]3O[C@H]1C[C@H](N)[C@H](O)[C@H](C)O1` [Doxorubicin, doxorubicin], the “Response (deviation from well-circumscribed spheroid edge / spheroid dissolution)” value with spheroids^MARY-X [1] (24-hour treatment) was “mixed response”; in the assay with spheroids^MARY-X [1] (24-hour treatment, listed as Doxorubicin (DOX)), “Moderate - Complete”.

Broadly, the IC50 is the concentration at which inhibition is half-maximal.
